Test results: US4525360A, “Anti-psychotic phenylindene derivatives and acid addition salts thereof” (Kefalas A/S, priority 1982, dated 1985)
Where a name gives a salt, the structure may show the parent alone.

Assays:
[1] = Catalepsy wire mesh, rat, max.; assay type: in vivo, rats; settings: Rattus norvegicus, po, 6 h, read-out: Catalep. ED50 (po)
Procedure: Catalepsy wire mesh, rat, max. (ED50 μmol/kg p.o.)
A vertical wire netting (50 cm×49 cm). The meshes (openings) of the netting are square (1 cm×1 cm). The wire diameter is 2 mm.
The animals are labeled and used in groups of five. The test substance is administered orally (p.o.) at 4 dose levels selected from a fixed dose scale.
The animals are placed in the middle of the vertical wire netting 60, 120, 180, 240, 300 and 360 minutes after administration of the test compound. The animals are considered cataleptic when they remain immobile during a period of 15 seconds. This cataleptic reaction is designated +.
If the rats are "atonic" and passively slide down the wire mesh they are considered not cataleptic. If the animals climb up and down the wire mesh they are nor cataleptic. In both situations the designation - is used.

5-HT2 receptors = molecular target: T1, 5-HT2 receptors (Rattus norvegicus, UniProt P14842); assay: 3H-spiroperidol binding to rat cortical membranes (5-HT2 receptors); settings: Table 1, read-out: 3H-Spiroperidol bindings 5-HT2 receptors IC50
T1 construct: Whole cortex is dissected out and homogenized; from tissue; host or cells: rat whole cortex membranes
T1 sequence (P14842 whole entry): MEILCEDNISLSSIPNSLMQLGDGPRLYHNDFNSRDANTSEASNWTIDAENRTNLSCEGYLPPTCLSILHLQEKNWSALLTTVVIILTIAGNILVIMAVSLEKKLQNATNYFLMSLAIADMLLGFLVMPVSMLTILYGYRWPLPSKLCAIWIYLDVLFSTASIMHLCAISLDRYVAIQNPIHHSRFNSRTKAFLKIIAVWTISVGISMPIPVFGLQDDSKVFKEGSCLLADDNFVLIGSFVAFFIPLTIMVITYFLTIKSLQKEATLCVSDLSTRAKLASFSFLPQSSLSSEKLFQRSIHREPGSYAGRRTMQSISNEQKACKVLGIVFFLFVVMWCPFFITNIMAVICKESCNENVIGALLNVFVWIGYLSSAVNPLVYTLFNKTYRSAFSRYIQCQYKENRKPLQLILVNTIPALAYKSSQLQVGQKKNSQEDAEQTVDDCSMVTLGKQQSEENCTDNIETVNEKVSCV
Procedure: ^3 H-spiroperidol binding to rat cortical membranes (5-HT2 Receptors)
50 mM Tris buffer pH 7.7 (at 25° C.) (icecold) stored in the cold: 7.38 gram Trisma®--7.7/l.
Mixed Tris buffer (icecold) made fresh every day jut before use.
10^-5 M Mianserin: 3.01 mg mianserin-HCl/10 ml H2 O, Diluted 1:100.
3×10^-6 M Sulpiride: 3.41 mg sulpiride/10 ml H2 O, Diluted 0.3 ml to 100 ml.
Whatman GF/B filters 25 mm.
Spiroperidol[benzene ring--^3 H--] approx. 30 Ci/mmol from New England Nuclear
(Diluted daily to 5 nM in 3×10^-6 M sulpiride solution).
Ultra Turrax homogenizer.
(§1) Rats are killed by guillutination, exsanguinated and their brains removed. Whole cortex is dissected out and homogenized (Ultra Turrax, 10 sec.) in 100 vol (w/v) icecold 50 mM buffer pH 7.7 (at 25° C.). The homogenate is centrifuged twice at 20.000 g (13.000 rpm) for 10 min. at 4° C., with rehomogenization (Ultra Turrax, 10 sec.) of the intermediate pellet in fresh buffer. The pellet is homogenized (Ultra Turrax, 10 sec.) in 80 volumes (w/v) of icecold, freshly prepared mixed Tris buffer.
(§2) Incubation tubes in triplicate receive on ice 100 μl of drugs dissolved in water, 100 μl of 5 nM ^3 H-spiroperidol and 800 μl of the cold membrane suspension. The tubes are incubated at 37° C. for 10 min. and rapidly filtered under vacuum through Whatman GF/B filters. The tubes are rinsed with 5 ml and thereafter the filters with 2×5 ml icecold 50 mM Tris buffer, pH 7.7 (at 25° C.). The radioactivity on the filters is determined by liquid scintillation counting after the addition of 5 ml of picofluor-15. The unspecific binding of ^3 H-spiroperidol is determined by incubating the samples with 10^-6 M mianserine.
Each series consist of 15-16 triple samples (3 controls, 2-3 containing 10^-6 mianserine and two series of test compounds in 5 concentrations).
The means of the control samples and of the 10^-6 M mianserine samples are calculated.

methylphenidate = assay: Methylphenidate antagonism, mice i.p.; assay type: in vivo; settings: Mus musculus, ip, read-out: MePh Antag. ED50 (ip)
Procedure: Methylphenidate antagonism (ED50 μmol/kg i.p.)
Perspex observation cages without bottom and lid, consisting of 5 sections each measuring 12×25×30 cm.
Two hours after injection of test substance, methylphenidate, 60 mg/kg, is injected s.c. After administration of methylphenidate the mice are placed in the observation cages, 2 in each cage, where they remain for exactly 1 hour. The cages are placed on corrugated paper, the corrugations facing upwards. It is examined whether the mice have been biting the corrugated paper or not.
The result is stated in fractions: 0/3, 1/3, 2/3 and 3/3 where 0, 1, 2 and 3 are the number of pairs which have not been biting on receipt of the dose in question.

5-HT, rat fundus strip = assay: 5-HT antagonism, rat fundus strip; settings: Rattus norvegicus, 10 min, read-out: 5HT rat-fundus-strip IC50
Procedure: 5-HT antagonism, rat fundus strip
5-hydroxytryptamine (5-HT).
Rats are killed by a blow on the head and exsanguinated. The stomach fundus is removed and carefully cleaned with Krebs solution at 30° C. The fundus is then stretched over a rounded end of a plastic rod about the thickness of a pencil, whereby the longitudinal direction of the muscle fibers is visible. The fundus is halved by carefully cutting in the central line and in the direction of these fibres. Along this incision two strips with a length of 15-25 mm and with width 1.5-2.5 mm are cut, one from each half of the fundus. The mucosa is then carefully removed. A thread is attached to each end of a strip. One thread is fixed to a pin in the bottom of the organ bath and the other thread is fixed to an isotonic transducer. The strip is kept under a tone of 1.5 to 2.0 g. […] Concentration response curves to 5-HT are obtained by adding 5-HT to the bath in increasing concentrations (0.1 ml of 10^-9 M resulting in 1.0×10^-11 M in the bath, 0.2 ml of 10^-9 M resulting in 3.0×10^-11 M, 0.1 ml of 10^-8 M resulting in about 1×10^-10 M, 0.2 ml of 10^-8 M resulting in about 3×10^-10 M--0.2 ml of 10^-4 resulting in about 3×10^-6 M in the bath). Each concentration of 5-HT is allowed to exert its maximal effect (1-10 min) before the next is added. When the maximal response is reached the tissue is carefully washed. The test substance is added to the bath for 10 min. before examining its effect on a new cumulative 5-HT concentration response curve. From the control concentration effect curve the Km for 5-HT is calculated.
The results are recorded as mean percentage inhibition.
Substrate concentration for 5-HT: 1.0×10^-9 M to 1.0×10^-8 M.
Michaelis-Menten constant for 5-HT is estimated each time.

D-2 receptors = molecular target: T2, D-2 receptors (Rattus norvegicus, UniProt P61169); assay: 3H-spiroperidol binding to rat striatal membranes (D-2 receptors); settings: Table 1, read-out: 3H-Spiroperidol bindings DA-2 receptors IC50
T2 construct: The corpora striata are dissected out and homogenized; from tissue; host or cells: rat corpus striatum membranes
T2 sequence (P61169 whole entry): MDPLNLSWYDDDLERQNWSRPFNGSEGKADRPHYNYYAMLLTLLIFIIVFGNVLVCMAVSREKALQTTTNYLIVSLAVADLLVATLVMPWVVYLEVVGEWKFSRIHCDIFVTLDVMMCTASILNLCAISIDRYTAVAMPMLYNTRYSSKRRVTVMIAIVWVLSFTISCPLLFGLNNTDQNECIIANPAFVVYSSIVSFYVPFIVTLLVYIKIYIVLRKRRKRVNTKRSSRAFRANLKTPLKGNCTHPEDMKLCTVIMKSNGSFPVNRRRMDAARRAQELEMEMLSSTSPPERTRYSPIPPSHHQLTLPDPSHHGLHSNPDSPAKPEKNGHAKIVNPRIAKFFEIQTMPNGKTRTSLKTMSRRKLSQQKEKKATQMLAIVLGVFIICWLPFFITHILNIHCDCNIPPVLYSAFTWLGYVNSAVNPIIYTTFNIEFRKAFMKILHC
Procedure: 3H-spiroperidol binding to rat striatal membranes (D-2 receptors)
0.1% Ascorbic acid (icecold) made fresh every day
50 mM Tris buffer pH 7.7 (at 25° C.) (icecold) stored in the cold
50 mM Tris buffer pH 7.5 (at 25° C.), containing 0.2% ascorbic acid
(icecold) made fresh every day just before use
Mixed Tris buffer (icecold) made fresh every day just before use
96 ml 50 mM Tris pH 7.5 (at 25° C.) containing ascorbic acid
Whatman GF/B filters 25 mm
Spiroperidol[benzene ring-^3 H] approximately 30 Ci/mmol
from New England Nuclear. (Diluted daily to 5 nM in 0.1% ascorbic acid)
as §1, with “The corpora striata are” for “Whole cortex is”, “min” for “min.”, “200” for “80”
as §2, with “0.1% ascorbic acid,” for “water,”, “nM^3” for “nM ^3”, “tissue suspension .” for “membrane suspension.”, “min” for “min.”, “scintillation liquid (e.g. picofluor-15).” for “5 ml of picofluor-15.”, “10^-6M (+)butaclamol.” for “10^-6 M mianserine.”
Each series consists of 15 triple samples (3 controls, 2 containing 10^-6M (+)butaclamol, and two series of test compounds in 5 concentrations).
The means of the controls and (+)butaclamol are calculated.

SMILES | ED50 [1] [µmol/kg] | IC50 (5-HT2 receptors) [nM] | ED50 (methylphenidate) [µmol/kg] | IC50 (5-HT, rat fundus strip) [nM] | IC50 (D-2 receptors) [nM]
OCCN1CCN(CC/C=C2/c3ccccc3Sc3ccc(C(F)(F)F)cc32)CC1 [Cis(Z)-flupentixol, reference compound] | 2.1 | 13 | 0.14 | 1050 | 
O=C(c1ccc(F)cc1)C1CCN(CCn2c(=O)[nH]c3ccccc3c2=O)CC1 [Ketanserin, reference compound] |  |  |  | > 10000 | 2300
Cc1ccc2c(c1)C(C1=CCN(CCO)CC1)=CC2c1ccc(F)cc1 (centres unmarked) [Lu 19-153, 3-(4'-Fluorophenyl)-1-(1-hydroxyethyl-1,2,3,6-tetrahydropyrid-4-yl)-6-methyl-1-indene, hydrobromide] | 1.4 | 4.6 | 0.39 | 34 | 
OCCN1CCC(C2=CC(c3ccc(F)cc3)c3ccc(F)cc32)CC1 (centres unmarked) [Lu 19-158, hydrochloride] | 26 | 2.8 | 4.2 | 26 | 12
OCCN1CC=C(C2=CC(c3ccc(F)cc3)c3ccc(C(F)(F)F)cc32)CC1 (centres unmarked) [Lu 20-004, 3-(4'-Fluorophenyl)-1-(1-hydroxyethyl-1,2,3,6-tetrahydropyrid-4-yl)-6-trifluoromethyl-1-indene, hydrobromide] | 1.3 | 35 | 1 | 3260 | 
Cc1ccc2c(c1)C(C1CCN(CCO)CC1)=CC2c1ccc(F)cc1 (centres unmarked) [Lu 20-008, 3-(4'-Fluorophenyl)-1-(1-hydroxyethyl-4-piperidyl)-6-methyl-1-indene, hydrochloride] | 2.3 | 4 | 0.64 | 16 | 8.9
O=C1NCCN1CCN1CCC(C2C=C(c3ccc(F)cc3)c3ccc(F)cc32)CC1 (centres unmarked) [Lu 20-053, 6-Fluoro-3-(4'-fluorophenyl)-1-(1-(2-imidazolidinon-1-ylethyl)-4-piperidyl)-2-indene] | > 94 | 31 | 19.5 | 69 | 83
CN1CCC(C2=CC(c3ccc(F)cc3)c3ccc(C(F)(F)F)cc32)CC1 (centres unmarked) [Lu 20-071, 3-(4'-Fluorophenyl)-1-(1-methyl-4-piperidyl)-6-trifluoromethyl-1-indene, hydrobromide] | 2 | 15 | 1.7 | 1000 | 
CSc1ccc2c(c1)C(N1CCN(C)CC1)Cc1ccccc1S2 (centres unmarked) [Methiothepin, reference compound] | 2.3 | 6.8 | 2.5 | 58 | 2.6
